The values that follow come from US8431528B2, “Antibacterial Lactobacillus GG peptides and methods of use” (priority 2008, dated 2013).

Like-named read-outs stand apart in the source and are kept apart here. Ends that are not written are not given here.

Test [1] deals with methicillin-resistant Staphylococcus aureus (MRSA). Format: cell-based. As to conditions: MRSA growth (FIG. 11). An excerpt: LGG CM (19.7×10^12 CFU/ML) as positive control.
Test [2] has as its system E. coli EAEC 042. Format: cell-based. The note with it: EAEC 042, 3 h. The method, then: FIGS. 6A-6B show: EAEC 042 growth time-course (FIG. 6A). Ten microliters of E. coli (2.16×10^14 CFU/mL) were added in 1 mL LB broth and incubated in 37° C., shaking at 225 rpm, measuring A600 every 30 minutes. […] Ten microliters of EAEC 042 (7.7×10^12CFU/mL) were added to 1 mL LB broth mixed, and 100 mL of each peptide solution dissolved in MRS was added to the mixture. MRS alone (100 mL) and LGG CM (100 mL) (initial concentration 19.7×10^12CFU/mL) were used as negative and positive controls, respectively. The mixture was cultured for 3 hours and the A600 measured at the end of incubation. Also shown is the mean percentage inhibition ±SD. N=3 for all synthetic peptides tested. N=7 for LGG CM.
The assay was performed as described (12), with minor modifications. Briefly, 10 mL E. coli EAEC 042 (7.7×10^14CFU/mL) was added to 1.0 mL LB Broth, mixed, and 100 mL of each LGG-derived synthetic peptide solution dissolved in MRS (for peptide final concentration see FIG. 6B) was added to the mixture. MRS alone (100 mL) and LGG CM 100 mL (LGG concentration: 19.7×10^12 CFU/mL) were used as negative and positive controls, respectively. The mixture was cultured for 3 hours with shaking at 225 rpm, 37° C., measuring A600 at the end.

The subject of test [3] is Kanamycine-resistant E. coli SM10_pir. The note with it: Kanamycine-resistant E. coli 2.6×10^13 CFU/ML, 3 hours, A600. The method, then:
SM10_pir (2.6×10^13) 10 ml+100 ml peptide (in LB)+900 ml LB, mixed, incubated at 37° C., 225 rpm for 3 hours, at the end, measure A600 and calculation the inhibition rate. […] LGG CM (9.7×10^12 CFU/ML) as positive control.
(§1) SM 10_pir (2.6×10^13CFU) or TOPO10 (8.76×10^13) 10 μl, peptides solution 100 μl and (peptides dissolved in LB broth) were added into 900 ul LB broth, mixed, incubated at 37° C., for 3 hours with shaking at 225 rpm, measure the A600 at the end. Relative inhibition activity was calculated according to the following formula (1−A600 of sample group/A600 of control group)×100%.

Test [4] has as its system Tetracycline-resistant E. coli TOPO10. The note with it: Tetracycline-resistant E. coli 8.7×10^13 CFU/ML, 3 hours, A600. The method, then: TOPO10 (8.76×10^13) 10 ml+100 ml peptide (in LB)+900 ml LB, mixed, incubated at 37° C., 225 rpm for 3 hours, at the end, measure A600 and calculation the inhibition rate. […] LGG CM (9.7×10^12 CFU/ML) as positive control.
as §1

The test system of test [5] is Salmonella typhi. Briefly: Colony-count relative inhibition of Salmonella growth by peptide NPSRQERR
The note with it: S. typhi 38×10^6 CFU/mL; 3 hours, then overnight colony count. Format: cell-based.

The subject of test [6] is Staphylococcus aureus. The test can be described thus: Colony-count relative inhibition of Staphylococcus growth by peptide NPSRQERR
Format: cell-based.

Regarding “NPSRQQRR (antibacterial peptide isolated from Lactobacillus GG) [variant of NPSRQERR with net positive charge increased from 2 to 3]”, the “inhibition activity increased relative to NPSRQERR” value in test [1] (net positive charge increased from 2 to 3) is given as 16.5%.

As for “NPSRQEFF (peptide sequence SEQ ID NO 1 where residues 7 and 8 are both replaced with Phe for a zero net charge) [variant of NPSRQERR with net positive charge decreased from 2 to 0]”, the “inhibition activity lost relative to NPSRQERR” value in test [1] (net positive charge decreased from 2 to 0) is 12%.

As to VHTAPK [VHTAPK], the “E. coli growth inhibition” value in test [2] is 30%. Also, the inhibition rate in test [3] (peptide 3.25 mM) is recorded as 29.45%; in test [4] (peptide 3.25 mM), 48.53%.

For PDENK [PDENK], in test [2], the “E. coli growth inhibition” value was found to be 68.7%. In addition, the figures for the inhibition rate in test [3] (peptide 3.31 mM) and in test [4] (peptide 3.31 mM) were 68.54% and 81.4%, respectively.

In the case of NPSRQERR [NPSRQERR], the “E. coli growth inhibition” value in test [2] was found to be 81.4%. In addition, the “peptide concentration at which 100% inhibition was reached” value in test [5] was determined as 8 mmol/L; in test [6] (S. aureus 44×10^6 CFU/mL, 3 hours, then overnight colony count) it was 64 mmol/L. In addition, the “effect on S. aureus” value in test [6] (compared with E. coli EAEC 042) is given as “less pronounced but dose dependent”. Also, the inhibition rate in test [3] (peptide 2.76 mM) is recorded as 43.75%; in test [4] (peptide 2.76 mM) it was 69.08%.
